Row | Compound | melting point [°C]
1 | CCn1nc(-c2sc(C(=O)NC(C)C)nc2-c2ccccc2)ccc1=O [Example 178, 5-(1-ethyl-6-oxo-1,6-dihydro-3-pyridazinyl)-N-isopropyl-4-phenyl-1,3-thiazole-2-carboxamide] | 152.5 to 153
2 | CC(C)n1nc(-c2sc(Nc3cccc4ccccc34)nc2-c2ccccc2)ccc1=O [Example 72, 2-Isopropyl-6-[2-(1-naphthylamino)-4-phenyl-1,3-thiazol-5-yl]-3(2H)-pyridazinone] | 239 to 240
3 | CC(C)n1nc(-c2sc(NC(=O)NCc3ccccc3)nc2-c2ccccc2)ccc1=O [Example 11, N-benzyl-N′-[5-(1-isopropyl-6-oxo-1,6-dihydro-3-pyridazinyl)-4-phenyl-1,3-thiazol-2-yl]urea] | 200 to 201
4 | Cn1nc(-c2sc(C(N)=O)nc2-c2ccccc2)ccc1=O [Example 159, 5-(1-methyl-6-oxo-1,6-dihydro-3-pyridazinyl)-4-phenyl-1,3-thiazole-2-carboxamide] | 231 to 232
5 | O=C(NC1CC1)c1nc(-c2ccccc2)c(-c2ccc(=O)[nH]n2)s1 [Example 188, N-cyclopropyl-5-(6-oxo-1,6-dihydro-3-pyridazinyl)-4-phenyl-1,3-thiazole-2-carboxamide] | > 250
6 | CC(C)NC(=O)c1nc(-c2ccccc2)c(-c2ccc(=O)n(C)n2)s1 [Example 177, N-isopropyl-5-(1-methyl-6-oxo-1,6-dihydro-3-pyridazinyl)-4-phenyl-1,3-thiazole-2-carboxamide] | 154 to 154.5
7 | CC(C)n1nc(-c2sc(NC(=O)c3ccc(CNCCCN(C)C)cc3)nc2-c2ccccc2)ccc1=O [Example 143, 4-({[3-(Dimethylamino)propyl]amino}methyl)-N-[5-(1-isopropyl-6-oxo-1,6-dihydro-3-pyridazinyl)-4-phenyl-1,3-thiazol-2-yl]benzamide] | 108 to 110
8 | Cn1nc(-c2sc(C(=O)NCc3ccccn3)nc2-c2ccccc2)ccc1=O [Example 201, 5-(1-methyl-6-oxo-1,6-dihydro-3-pyridazinyl)-4-phenyl-N-(2-pyridinylmethyl)-1,3-thiazole-2-carboxamide] | 189 to 190.5
9 | CC(C)n1nc(-c2sc(NC(=O)Oc3ccccc3)nc2-c2ccccc2)ccc1=O | 205 to 207
10 | CC(C)n1nc(-c2sc(N(C)C)nc2-c2ccccc2)ccc1=O [Example 23, 6-[2-(dimethylamino)-4-phenyl-1,3-thiazol-5-yl]-2-isopropyl-3(2H)-pyridazinone] | 158 to 160
11 | CC(=O)Cn1nc(-c2sc(N)nc2-c2ccccc2)ccc1=O [Example 90, 6-(2-Amino-4-phenyl-1,3-thiazol-5-yl)-2-(2-oxopropyl)-3(2H)-pyridazinone] | 216 to 219
12 | CCCNC(=O)c1nc(-c2ccc(F)cc2)c(-c2ccc(=O)n(C(C)C)n2)s1 [Example 175, 4-(4-fluorophenyl)-5-(1-isopropyl-6-oxo-1,6-dihydro-3-pyridazinyl)-N-propyl-1,3-thiazole-2-carboxamide] | 146.5 to 147.5
13 | CC(C)n1nc(-c2sc(NC(=O)c3ccc(Cn4ccnc4)cc3)nc2-c2ccccc2)ccc1=O [Example 139, 4-(1H-Imidazol-1-ylmethyl)-N-[5-(1-isopropyl-6-oxo-1,6-dihydro-3-pyridazinyl)-4-phenyl-1,3-thiazol-2-yl]benzamide] | > 250
14 | CC(C)n1nc(-c2sc(C(=O)NCc3ccccc3)nc2-c2ccccc2)ccc1=O [Example 220, N-Benzyl-5-(1-isopropyl-6-oxo-1,6-dihydro-3-pyridazinyl)-4-phenyl-1,3-thiazole-2-carboxamide] | 186 to 187
15 | CC(C)n1nc(-c2sc(NC(=O)c3ccc(CCl)cc3)nc2-c2ccccc2)ccc1=O [Example 56, 4-(Chloromethyl)-N-[5-(1-isopropyl-6-oxo-1,6-dihydro-3-pyridazinyl)-4-phenyl-1,3-thiazol-2-yl]benzamide] | > 250
16 | CC(C)n1nc(-c2sc(C(=O)NCCc3ccccn3)nc2-c2ccc(F)cc2)ccc1=O [Example 237, 4-(4-Fluorophenyl)-5-(1-isopropyl-6-oxo-1,6-dihydro-3-pyridazinyl)-N-[2-(2-pyridinyl)ethyl]-1,3-thiazole-2-carboxamide] | 144 to 145
17 | O=C(NC1CC1)c1nc(-c2ccccc2)c(-c2ccc(=O)n(Cc3ccccc3)n2)s1 [Example 194, 5-(1-benzyl-6-oxo-1,6-dihydro-3-pyridazinyl)-N-cyclopropyl-4-phenyl-1,3-thiazole-2-carboxamide] | 151 to 152.5

Other lines, results leading:

Row | melting point [°C] | Compound
18 | 94 to 96 | CC(C)n1nc(-c2sc(NC(=O)CN(C)CCc3ccccn3)nc2-c2ccccc2)ccc1=O [Example 111, N-[5-(1-Isopropyl-6-oxo-1,6-dihydro-3-pyridazinyl)-4-phenyl-1,3-thiazol-2-yl]-2-{methyl[2-(2-pyridinyl)ethyl]amino}acetamide]
19 | 250 to 252 | CC(C)n1nc(-c2sc(NC(=O)CNCCN3CCOCC3)nc2-c2ccccc2)ccc1=O.Cl.Cl
20 | 224 to 226 | CC(C)n1nc(-c2sc(NC(=O)C(C)(C)C)nc2-c2ccccc2)ccc1=O [Example 5, N-[5-(1-Isopropyl-6-oxo-1,6-dihydro-3-pyridazinyl)-4-phenyl-1,3-thiazol-2-yl]-2,2-dimethylpropanamide]
21 | 134 to 136 | CC(C)n1nc(-c2sc(NC(=O)c3ccc(CNCCN4CCCCC4)cc3)nc2-c2ccccc2)ccc1=O [Example 144, N-[5-(1-Isopropyl-6-oxo-1,6-dihydro-3-pyridazinyl)-4-phenyl-1,3-thiazol-2-yl]-4-({[2-(1-piperidinyl)ethyl]amino}methyl)benzamide]
22 | 198 to 199 | CC(C)CC(=O)Nc1nc(-c2ccccc2)c(-c2ccc(=O)n(C(C)C)n2)s1 [Example 58, N-[5-(1-Isopropyl-6-oxo-1,6-dihydro-3-pyridazinyl)-4-phenyl-1,3-thiazol-2-yl]-3-methylbutanamide]
23 | 138 to 140 | CC(C)n1nc(-c2sc(NC(=O)N3CCCCC3)nc2-c2ccccc2)ccc1=O [Example 52, N-[5-(1-Isopropyl-6-oxo-1,6-dihydro-3-pyridazinyl)-4-phenyl-1,3-thiazol-2-yl]-1-piperidinecarboxamide]
24 | 156 to 158 | CC(C)n1nc(-c2sc(NC(=O)CNCc3cccnc3)nc2-c2ccccc2)ccc1=O [Example 120, N-[5-(1-Isopropyl-6-oxo-1,6-dihydro-3-pyridazinyl)-4-phenyl-1,3-thiazol-2-yl]-2-[(3-pyridinylmethyl)amino]acetamide]
25 | 243 to 244 | CC(C)n1nc(-c2sc(NC(=O)COc3ccccc3)nc2-c2ccccc2)ccc1=O [Example 8, N-[5-(1-Isopropyl-6-oxo-1,6-dihydro-3-pyridazinyl)-4-phenyl-1,3-thiazol-2-yl]-2-phenoxyacetamide]
26 | 127 to 128 | CC(C)n1nc(-c2sc(C(=O)NC3CC3)nc2-c2ccccc2)ccc1=O [Example 192, N-cyclopropyl-5-(1-isopropyl-6-oxo-1,6-dihydro-3-pyridazinyl)-4-phenyl-1,3-thiazole-2-carboxamide]
